# According to patent US6821995B1, “Method of treating batten disease” (priority 1999, dated 2004):
# Several values for one entry are separate records, joined by “and”; a condition that tells them apart may be missing. Equal entries are not always repeated.
# Key:
# [1] = tested on: cells derived from late infantile Batten disease (LINCL or CLN2 deficient); experiment: JC-1 mitochondrial membrane potential assay of etoposide-induced apoptosis, LINCL cells; assay type: cell-based, human; conditions: for percentage of cells showing J-aggregates: two patient cell lines, JC-1 stain
# Experimental: (§1) Batten disease-derived cell lines were tested for their susceptibility to apoptosis induced by etoposide and whether flupirtine had any protective effect against apoptosis. Cells derived from infantile Batten disease (INCL or CLN1 deficient), cells derived from late infantile Batten disease (LINCL or CLN2 deficient), and cells derived from juvenile Batten disease (JNCL or CLN3 deficient) received an 18 hour incubation in 30 μM etoposide with and without a pre-treatment with 20 μM flupirtine. As a control, cells were also left untreated. Cells were then stained with JC-1 fluorescent stain, which is a mitochondrial membrane potential-sensitive dye. When cells are alive, the mitochondrial potential is maintained and the mitochondria appear green. At the commitment point of apoptosis, proapoptotic agents like etopside cause a drop in mitochondrial membrane potential and the mitochondria appear yellow-red due to the formation of J-aggregates.
# (§2) Cell counts were conducted for to determine the percentage of cells showing J-aggregates (TABLE 1).
# (§3) The numbers of cells showing J-aggregates indicates the number of cells that are apoptosis-ready but are still viable.
# [2] = tested on: cells derived from juvenile Batten disease (JNCL or CLN3 deficient); experiment: JC-1 mitochondrial membrane potential assay of etoposide-induced apoptosis, JNCL cells; assay type: cell-based, human
# Experimental: as §1, §2, §3
# [3] = tested on: cells derived from infantile Batten disease (INCL or CLN1 deficient); experiment: JC-1 mitochondrial membrane potential assay of etoposide-induced apoptosis, INCL cells; assay type: cell-based, human; conditions: for percentage of cells showing J-aggregates: two patient cell lines, JC-1 stain
# Experimental: as §1, §2, §3
# stroke in rats = conditions: rats pretreated with flupirtine; cited from earlier work
# [4] = tested on: retinal pigment epithelial cells and neuronal cells in culture; conditions: cited from earlier work
# [5] = tested on: Costa Rican Batten disease-derived fibroblasts (CLN6 deficient); experiment: Protection against etoposide-induced apoptosis, Costa Rican Batten disease cells; assay type: cell-based, human; conditions: pretreatment with flupirtine (FIG. 4)
# Experimental: Graph represents number of living cells after treatments indicated.
# Cells derived from Costa Rican Batten disease (CLN6 deficient) were also tested for their response to etoposide. The CLN6 gene remains uncharacterized, though linked to chromosome 15.
# [6] = tested on: hNT neurons (human post-mitotic, fully-differentiated neurons); experiment: Etoposide-induced apoptosis in differentiated hNT neurons; assay type: cell-based; conditions: pre-treatment with 10 μM flupirtine, 20 μM etoposide 18 hour (FIG. 5)
# Experimental: Cells were visualized by fluorescent microscopy.
# Finally, human post-mitotic neuronal cells were tested for thier response to flupirtine and etoposide-induced apoptosis. NT2 cells were treated with retinoic acid, then mitotic inhibitors for 6 weeks to become hNT neurons that were fully differentiated. Next, the hNT neurons received an 18 hour incubation in 20 μM etoposide with and without a pre-treatment with 10 μM flupirtine.
# [7] = adults and children, chronically for over 12 months; cited from earlier work
# [8] = 30 μM etoposide alone, 18 hour incubation
# [9] = pre-treatment with 20 μM flupirtine, then 30 μM etoposide 18 hour
SMILES,yellow-red J-aggregates seen by fluorescent microscopy ([1]; etoposide alone (FIG. 3B)),"percentage of cells showing J-aggregates [1, 8]",yellow-red J-aggregates seen by fluorescent microscopy ([2]; etoposide alone (FIG. 3C)),"percentage of cells showing J-aggregates ([2]; two patient cell lines, 30 μM etoposide alone, 18 hour incubation, JC-1 stain)",yellow-red J-aggregates seen by fluorescent microscopy ([3]; etoposide alone (FIG. 3A)),"percentage of cells showing J-aggregates [3, 8]","protection afforded by Flupirtine ([1]; J-aggregate counts, etoposide vs etoposide + flupirtine)","yellow-red J-aggregates seen by fluorescent microscopy ([1]; flupirtine pretreated, then etoposide (FIG. 3B))","percentage of cells showing J-aggregates [1, 9]",area of ischemia induced by stroke (stroke in rats),"yellow-red J-aggregates seen by fluorescent microscopy ([2]; flupirtine pretreated, then etoposide (FIG. 3C))",effect on apoptosis [4],"yellow-red J-aggregates seen by fluorescent microscopy ([3]; flupirtine pretreated, then etoposide (FIG. 3A))","percentage of cells showing J-aggregates [3, 9]",protection from etoposide-induced apoptosis (number of living cells) [5],effect on etoposide-induced apoptosis [6],tolerability in chronic use [7]
COc1cc([C@@H]2c3cc4c(cc3[C@@H](O[C@@H]3O[C@@H]5CO[C@@H](C)O[C@H]5[C@H](O)[C@H]3O)[C@H]3COC(=O)[C@H]23)OCO4)cc(OC)c1O [Etoposide],many yellow-red aggregates,100% and 96%,many yellow-red aggregates,58.4% and 64%,many yellow-red aggregates,61% and 51%,–,–,–,–,–,–,–,–,–,–,–
"CCOC(=O)Nc1ccc(NCc2ccc(F)cc2)nc1N [Flupirtine, 2-amino-3-ethoxycarbonylamino-6-(p-fluorobenzylamino)-pyridine]",–,–,–,–,–,–,almost complete,no aggregates,0% and 1.8%,reduce the area of ischemia,no aggregates,counteract apoptosis,no aggregates,6.7% and 10.8%,protected from etoposide-induced apoptosis,completely blocked etoposide-induced apoptosis,without undue side effect or addiction
